Test results taken from patent publication US9637471B2, “Hydroxyindalpine derivatives and their medical use” (Technische Universitat Munchen, priority 2013, dated 2017).

Experiments:
5-HT1P receptor = experiment: Neuronal tissue assay: voltage-sensitive dye neuroimaging of human submucous plexus preparations; type: cell-based
Protocol: The effect of 5-BOIP was tested on freshly dissected submucous plexus preparations from surgical resections of human intestine. Samples were taken from macroscopically unaffected areas. Procedures were approved by the ethics committees of the Technical University Munich (1748/07 and 2595/09). Segments were dissected in ice cold Krebs solution to obtain mucosa/submucosa preparations containing the inner submucous plexus preparations for the imaging experiments.
In order to image the activity of enteric neurons using voltage sensitive dyes, the human submucous plexus preparations were placed into a recording chamber which was continuously perfused at 37° C. with oxygenated Krebs solution containing 117 mM NaCl, 4.7 mM KCl, 1.2 mM MgCl2, 1.2 mM NaH2PO4, 20 mM NaHCO3, 2.5 mM CaCl2, 11 mM glucose (pH 7.4). The neuroimaging set-up allowed to monitor membrane potential changes and changes in intracellular Ca^2+ [Ca]i transients in all cells of a given ganglion. To study membrane potential changes, individual ganglia were stained with the voltage-sensitive dye Di-8-ANEPPS (20 μM; Molecular Probes, Eugene, Oreg., USA) via intraganglionic application through a microejection pipette.
The imaging experiments were conducted on an inverted microscope (Zeiss Axio Observer.A1; Munich, Germany) equipped with the NeuroCCD system, consisting of a fast CCD camera (80×80 pixels) and the Neuroplex software for data acquisition and analysis (RedShirtImaging, Decatur, Ga., USA). To detect Di-8-ANEPPS a modified Cy3 filterset (545±15 nm excitation, 565 nm dichroic mirror, 580 nm barrier; Ahf Analysentechnik, Tübingen, Germany) was used. A green LED (LE T S2W, Osram, Munich, Germany) was used to excite Di-8-ANEPPS. Visualization of the ganglia and recording of signals were done with a ×100 or ×40 objective (NA=1.35, Olympus, Hamburg, Germany). The imaging set-up allowed to measure relative changes in the fluorescence (ΔF/F), which is for Di-8-ANEPPS linearly related to changes in the membrane potential. Frame rate to detect action potentials was 1 kHz. The overlay of signals and ganglion images allowed the analysis of the responses of individual cells.
5-BOIP was prepared at a stock solution of 100 mM. For controlled local application fine glass capillaries were filled with 50 μM 5-BOIP and positioned just above a ganglion. 5-BOIP was microejected for 400 ms via pressure pulse onto the ganglion. […] Since G protein coupled receptor activation takes several seconds, the recordings were started after a period of 2 s. In preliminary experiments it was verified that there was no immediate effect of 5-BOIP that would begin with the ejection application or directly thereafter.
The specificity of 5-BOIP effects was tested against the 5-HT1 antagonist 5-hydroxytryptophan dipeptide (5-HTP-DP). […]

[1] = Retention of activity after storage (chemical stability); type: physicochemical; details: storage for 15 months as a solid at 4° C. or in solution frozen at −20° C.
[2] = system: circular muscle strips from the guinea pig stomach; experiment: Nerve mediated muscle responses to electrical field stimulation (EFS) in circular muscle strips, organ bath; type: cell-based; details: 10 μM in organ bath, EFS after 20 min
Protocol: The effects of 5-BOIP and homo-5-BOIP were tested in tissue preparations from the guinea pig stomach. After sacrificing the guinea pigs, the stomach was removed and immediately placed in ice-cold oxygenated Krebs solution. The stomach was opened along the greater curvature, thoroughly washed and pinned mucosal side up in Sylgard-coated Petri dishes. The mucosa was then carefully removed. Muscle strips (1.5 cm^2) were cut parallel to the circular muscle and mounted in 25 ml organ baths where they were maintained in oxygenated Krebs solution at 37° C. One edge of each muscle strip was attached to an isometric tension transducer (PowerLab, AD Instruments, Spechbach, Germany).
After mounting in the organ baths, tissues were equilibrated with a preload set at 15 mN for 45 min. Then, electrical field stimulations (EFS) were performed (constant current, 100 mA, pulse frequency 10 Hz, pulse width of 0.5 ms, 10 s). With the chosen parameters for the EFS, only the neuronal tissue in the preparation was stimulated without having a direct effect on the smooth muscle. […]
After reaching stable responses to the EFS, 5-BOIP and homo-5-BOIP were added to the organ baths at a final concentration of 10 μM. […] The responses to the EFS under control conditions and in the presence of 5-BOIP or homo-5-BOIP were analyzed later.

mouse isolated colon = details: cited from earlier work

Compound	action potential (spike) frequency (5-HT1P receptor; 5-BOIP alone, 50 μM in capillary microejected 400 ms onto ganglion, median (10%/90%))	effect on human enteric nerve cells when applied to the ganglia (5-HT1P receptor; 5-BOIP applied to ganglia, human submucous plexus)	action potential (spike) frequency in presence of 5-HT1P receptor antagonist 5-HTP-DP (5-HT1P receptor; 5-BOIP during 20 min bath application of 10 μM 5-HTP-DP, median (10%/90%))	action potential (spike) frequency after washing out the antagonist 5-HTP-DP (5-HT1P receptor; 5-BOIP freshly added after washout of 5-HTP-DP, median (10%/90%))	activity after storage [1]	effect on the "on contraction" in response to the EFS [2]	effect on threshold pressure required to trigger the peristaltic reflex (mouse isolated colon)	effect on peristalsis (mouse isolated colon; concentration dependent)
c1ccc(COc2ccc3[nH]cc(CCC4CCNCC4)c3c2)cc1 [5-BOIP, 5-(benzyloxy)-3-(2-(piperidin-4-yl)ethyl)-1H-indole]	1.6 (1.0/2.1) Hz	induces action potentials	0 (0/0.5) Hz	1.0 (0.5/1.6) Hz	retains activity	clearly reduced		
Oc1ccc2[nH]cc(CCC3CCNCC3)c2c1 [5-OHIP, 5-hydroxyindalpine]					would lose its activity		reduce the threshold pressure	accelerate peristalsis
c1ccc(COc2ccc3[nH]cc(CCCC4CCNCC4)c3c2)cc1 [homo-5-BOIP, 5-(benzyloxy)-3-(3-[piperidin-4-yl]propyl)-1H-indole]						clearly reduced		
